Measurements from patent EP0804147B1, “DERMATO-COSMETOLOGIC COMPOSITION” (PIERRE FABRE DERMO-COSMETIQUE, priority 1994, dated 1995).
Like-named read-outs stand apart in the source and are kept apart here.

Assays:
[1] = Water retention capacity of skin flaps (stratum corneum samples soaked in active solution, dried, rehydrated; desorbed water quantified by GC-MS); settings: 90% d'humidité relative
From the text: Des échantillons de stratum corneum sont immergés pendant 24 heures dans une solution de l'actif à analyser. Ils sont ensuite séchés pendant 24 heures dans un dessicateur sur silicagel puis réhydratés pendant 48 heures dans une enceinte à 90% d'humidité relative.
Ces échantillons sont analysés après l'étape de séchage et après l'étape de réhydratation. La technique utilisée est la chromatographie en phase gazeuse couplée à la spectrométrie de masse.
Les échantillons de peau pesés sont placés dans un four chauffé à 100°C, la vapeur d'eau désorbée est entrainée par un gaz de balayage sec vers le chromatographe où elle sera détectée.
Un spectre est obtenu en sortie de l'appareil. L'eau désorbée est quantifiée par la mesure de l'aire du pic. Le spectromètre de masse couplé à la CPG permet de s'assurer que le composé désorbé et quantifié est bien de l'eau.
Cette technique allie donc une analyse qualitative à une analyse quantitative. Les résultats sont donnés en pourcentage d'eau retenue et permettent donc d'évaluer le pouvoir hygroscopique des produits.
Les résultats sont présentés sur la figure 1.

[2] = compared with lactate d'ammonium
[3] = test system: contaminations microbiennes; settings: cream containing 13%, no other preservative
[4] = test system: Corynébactéries; settings: bacteria involved in body odour (armpits)
[5] = for effet hydratant: topical on forearm, 0-6 h
From the text: La spectroscopie infrarouge in vivo est une technique non invasive, rapide et de grande sensibilité. Les molécules absorbent toutes différemment le rayonnement infrarouge. C'est en analysant leur spectre d'absorption que l'on peut retrouver la structure de la molécule.
En fonction de l'application de divers traitements, des liaisons entre l'eau apportée et la peau se créent et entraînent des modifications de certaines bandes d'absorption.
Ainsi seront analysés sur le spectre les pics suivants : • le pic d'absorption dû à l'élongation de la liaison OH de l'eau à 2100 cm-1. Les variations d'intensité de ce pic ne sont pas visibles à l'oeil nu mais elles sont significatives et donc enregistrées. • le pic d'absorption dû à l'élongation des liaisons amide I à 1640 cm-1. L'élongation de cette liaison se trouve modifiée lorsque des liaisons hydrogènes se créent par apport d'eau. • le pic d'absorption dû à l'élongation des liaisons amide II à 1540 cm-1. Ce pic n'est influencé par la présence d'eau que de façon négligeable; il est donc utilisé pour pondérer les deux pics précédents.
Les préparations cosmétiques à tester sont appliquées sur une zone délimitée de l'avant-bras. Une zone non traitée est conservée comme témoin.
Pour chaque spectre obtenu sont mesurés les rapports suivants : (amideI)/(amideII)appelé facteur d'hydratation (ou MF); (eau)/(amideII) [formula]
Ces rapports sont calculés aux temps 0, 1, 2, ..., 6 heures et les courbes suivantes sont tracées : MF témoin(t) - MF bras traité(t) = f(t) avec t, représentant le temps en heures.; (eau)/(amideII)témoin(t) -(eau)/(amideII)bras traité(t) = f(t) [formula]
L'allure de ces courbes est ensuite comparée. En effet, le pic des amides I pourrait être directement influencé par le produit appliqué alors que le pic à 2100 cm-1 n'est influencé que par l'eau.
Si les deux courbes obtenues évoluent dans le même sens, on peut considérer que la variation enregistrée rend bien compte de la fixation de l'eau sur la peau. Dans le cas contraire, il faut émettre des réserves sur les conclusions à apporter.
On teste par cette technique des crèmes contenant 5% et 13% de glycolate de guanidine, de formules suivantes (les pourcentages sont exprimés en p/p) :
Les effets sont comparés avec ceux de compositions contenant : • 15% glycérol • 5% glycérol • 13% lactate d'ammonium • 5% lactate d'ammonium.

Molecule	eau retenue ([1]; skin treated with 15% solution) [%]	eau retenue ([1]; skin treated with 13% solution) [%]	propriétés kératorégulatrices [2]	protection contre les contaminations microbiennes (conservateur) [3]	activité bactéricide [4]	effet hydratant ([5]; cream containing 5% (formula B), figure 3)	durée de la différence d'hydratation ([5]; cream containing 5% vs 5% glycérol cream) [heures]	effet hydratant ([5]; cream containing 13% (formula A), figure 2)	durée de la différence d'hydratation ([5]; cream containing 13% vs placebo and 13% lactate d'ammonium cream) [heures]
OCC(O)CO [glycérol]	125								
CC(O)C(=O)O (stereo not shown) [lactate d'ammonium]		135							
glycolate de guanidine		300	supérieures à celles du lactate d'ammonium	s'auto-protège contre les contaminations microbiennes	actif sur des bactéries impliquées dans la formation d'odeurs corporelles	beaucoup plus hydratante que celle contenant 5% de glycérol	> 6	beaucoup plus hydratante que le placebo et que la crème contenant 13% de lactate d'ammonium	> 6
